# Earlier results in patent publication US6669955B2, “Combination dosage form containing individual dosage units of a cholesterol-lowering agent, an inhibitor of the renin-angiotensin system, and aspirin” (Longwood Pharmaceutical Research, Inc., priority 2001, dated 2003).
# Assays:
# [1] = test system: patients at risk for cardiovascular events; details: daily administration of low doses (approximately 80 mg); cited from earlier work
# [2] = test system: blood pressure; details: relative to angiotensin II; cited from earlier work
molecule,measurement,setting,value
"CC(=O)Oc1ccccc1C(=O)O [aspirin, acetylsalicylic acid]","reduction of second heart attacks, strokes, and cardiovascular deaths",[1],at least 25%
"angiotensin I (DRVYIHPFHL; Angiotensin-1; UniProt P01019 25-34, looked up) [decapeptide formed by renin acting on angiotensinogen]","hypertensive activity, as share of that of angiotensin II",[2],about 1%
